system: microfilariae of Dirofilaria immitis; assay: Dirofilaria immitis, Microfilaria (DiMF) Assay; format: cell-based; conditions: read-out: D. immitis activity level (IC50 or MED)
Description: Heartworm Screen Dirofilaria immitis (D. immitis)
Dirofilaria immitis, Microfilaria (DiMF) Assay.
Compounds were dissolved and serially diluted in DMSO. Aliquots were spotted to the empty wells of assay plates. Media and microfilariae of Dirofilaria immitis were added to each well to dilute the test compounds to the desired concentrations. Assay plates were incubated for approximately 72 hours, and the larvae in each well were observed microscopically for drug effect. Microfilariae in each well were assessed subjectively for survival or paralysis, and results were reported as Minimum Effective Dose (MED).
Active and selective (DiL4 vs. DiMF potency) example compounds were subsequently evaluated in heartworm positive dog studies to correlate the in vitro selectivity profile with in vivo effects on circulating microfilariae.

First: CC(C)Oc1cnc(-c2nsc(Nc3ncccc3C(C)C)n2)cc1C(N)=O [Compound 198, 5-isopropoxy-2-(5-(3-isopropylpyridin-2-ylamino)-1,2,4-thiadiazol-3-yl)isonicotin-amide]
Second: COC(=O)c1cc(-c2nsc(Nc3ncccc3C(C)C)n2)ncc1OC(C)C [Compound 197, methyl 5-isopropoxy-2-(5-(3-isopropylpyridin-2-ylamino)-1,2,4-thiadiazol-3-yl)isonicotinate]
The IC50 of the first is higher: 500 to 5000 nM for the first, < 200 nM for the second.

`COC(=O)c1cc(-c2nsc(Nc3ncccc3C)n2)ncc1OC(C)C` [Compound 196, methyl 5-isopropoxy-2-(5-(3-methylpyridin-2-ylamino)-1,2,4-thiadiazol-3-yl)isonicotinate] and `Cc1cccnc1Nc1nc(-c2cc(C#N)c(OC(C)C)cn2)ns1` [Compound 200, 5-isopropoxy-2-(5-(3-methylpyridin-2-ylamino)-1,2,4-thiadiazol-3-yl)isonicotino-nitrile] fall in the same range of IC50: 200 to 500 nM for the first, 200 to 500 nM for the second.

`CC(C)c1cnc(Nc2nc(-c3cc(OC4CC4)ccn3)ns2)cc1C(F)(F)F` [Compound 96, 3-(4-cycloprop-oxypyridin-2-yl)-N-(5-isopropyl-4-(trifluoromethyl)pyridin-2-yl)-1,2,4-thiadiazol-5-amine] and `COc1ccnc(-c2nsc(Nc3cc(C(F)(F)F)c(C(C)C)cn3)n2)c1` [Compound 182, N-(5-iso-propyl-4-(trifluoro-methyl)pyridin-2-yl)-3-(4-methoxy-pyridin-2-yl)-1,2,4-thiadiazol-5-amine] cannot be ordered by IC50: < 200 nM for the first, < 200 nM for the second.

First: CC(=O)N(C)c1cccnc1Nc1nc(-c2cc(C(F)F)c(OC(C)C)cn2)ns1 [Compound 261, N-(2-(3-(4-(difluoromethyl)-5-isopropoxy-pyridin-2-yl)-1,2,4-thiadiazol-5-ylamino)pyridin-3-yl)-N-methylacetamide]
Second: CC(C)Oc1cnc(-c2nsc(Nc3ncccc3C(F)(F)F)n2)cc1C(=O)N(C)C [Compound 218, 5-isopropoxy-N,N-dimethyl-2-(5-(3-(trifluoromethyl)pyridin-2-ylamino)-1,2,4-thiadiazol-3-yl)isonico-tinamide]
The IC50 of the first is lower: 200 to 500 nM for the first, 500 to 5000 nM for the second.

`O=C(NC1CC(F)(F)C1)c1ccc(Nc2nc(-c3ccc(OC4CC4)cn3)ns2)nc1` [Compound 107, 6-(3-(5-cyclo-propoxypyridin-2-yl)-1,2,4-thiadiazol-5-ylamino)-N-(3,3-difluoro-cyclobutyl) nicotinamide] and `COc1ccc(-c2nsc(Nc3ccc(C4CCCC4)cn3)n2)nc1` [Compound 68, N-(5-cyclopentyl-pyridin-2-yl)-3-(5-methoxypyridin-2-yl)-1,2,4-thiadiazol-5-amine] fall in the same range of IC50: 500 to 5000 nM for the first, 500 to 5000 nM for the second.

`COc1cccnc1Nc1nc(-c2ccc(OC3CC3)cn2)ns1` [Compound 80, 3-(5-cycloprop-oxypyridin-2-yl)-N-(3-methoxypyridin-2-yl)-1,2,4-thiadiazol-5-amine] and `COc1cccnc1Nc1nc(-c2ccc(OC3CC(F)(F)C3)cn2)ns1` [Compound 137, 3-(5-(3,3-difluorocyclo-butoxy)pyridin-2-yl)-N-(3-methoxypyridin-2-yl)-1,2,4-thiadiazol-5-amine] fall in the same range of IC50: 500 to 5000 nM for the first, 500 to 5000 nM for the second.

Compared with `Cc1nccnc1Nc1nc(-c2ccc(OC(C)C)cn2)ns1` [Compound 135, 3-(5-isoprop-oxypyridin-2-yl)-N-(3-methyl-pyrazin-2-yl)-1,2,4-thia-diazol-5-amine], `CC(=O)Nc1cccnc1Nc1nc(-c2ccc(OC(C)C)cn2)ns1` [Compound 161, N-(2-(3-(5-isopropoxy-pyridin-2-yl)-1,2,4-thiadiazol-5-ylamino)pyridin-3-yl)acetamide] is higher in IC50: 200 to 500 nM for the first, 500 to 5000 nM for the second. The first is the more potent here.

`CC(=O)N(C)c1cccnc1Nc1nc(-c2cc(C)ccn2)ns1` [Compound 208, N-methyl-N-(2-(3-(4-methylpyridin-2-yl)-1,2,4-thiadiazol-5-ylamino)pyridin-3-yl)acetamide] and `CC(=O)N(C)c1cccnc1Nc1nc(-c2cc3c(cn2)N(C)CC3)ns1` [Compound 202, N-methyl-N-(2-(3-(1-methyl-2,3-dihydro-1H-pyrrolo[2,3-c]pyridin-5-yl)-1,2,4-thiadiazol-5-ylamino)pyridin-3-yl)acetamide] fall in the same range of IC50: 500 to 5000 nM for the first, 500 to 5000 nM for the second.

First: CC(=O)N(C)c1cc(C(F)(F)F)cnc1Nc1nc(-c2cc(C(F)(F)F)c(OC(C)C)cn2)ns1 [Compound 268, N-(2-(3-(5-isopropoxy-4-(trifluoromethyl)pyridin-2-yl)-1,2,4-thiadiazol-5-ylamino)-5-(trifluoromethyl)pyridin-3-yl)-N-methylacetamide]
Second: CC(C)Oc1cnc(-c2nsc(Nc3ncc(C(C)C)cc3C(F)(F)F)n2)cc1C(N)=O [Compound 221, 5-isopropoxy-2-(5-(5-isopropyl-3-(trifluoromethyl)pyridin-2-ylamino)-1,2,4-thiadiazol-3-yl)iso-nicotinamide]
The IC50 of the first is lower: < 200 nM for the first, 200 to 500 nM for the second.

`Cc1cccnc1-c1nsc(Nc2ccc(N3CCCC3)cn2)n1` [Compound 51, 3-(3-methyl-pyridin-2-yl)-N-(5-(pyrrolidin-1-yl)pyridin-2-yl)-1,2,4-thiadiazol-5-amine] and `c1ccc(-c2nsc(Nc3ccc(N4CCCC4)cn3)n2)nc1` [Cmpd 8, 3-(pyridin-2-yl)-N-(5-(pyrrolidin-1-yl)pyridin-2-yl)-1,2,4-thiadiazol-5-amine] fall in the same range of IC50: 500 to 5000 nM for the first, 500 to 5000 nM for the second.

First: Cc1ccnc(Nc2nc(-c3ncccc3C)ns2)c1 [Compound 238, 3-(3-methyl-pyridin-2-yl)-N-(4-methyl-pyridin-2-yl)-1,2,4-thiadiazol-5-amine]
Second: CC(=O)N(C)c1ccc(-c2nsc(Nc3ncccc3C)n2)nc1 [Compound 269, N-methyl-N-(6-(5-(3-methylpyridin-2-ylamino)-1,2,4-thiadiazol-3-yl)pyridin-3-yl)acetamide]
The IC50 of the first is lower: 200 to 500 nM for the first, 500 to 5000 nM for the second. The first is the more potent here.

First: CC(=O)N1CCc2cc(-c3nsc(Nc4ncccc4C(F)(F)F)n3)ncc21 [Compound 267, 1-(5-(5-(3-(trifluoromethyl)pyridin-2-ylamino)-1,2,4-thiadiazol-3-yl)-2,3-dihydro-1H-pyrrolo[2,3-c]pyridin-1-yl)ethanone]
Second: COc1cccnc1Nc1nc(-c2cc(C(F)(F)F)c(OC3CC3)cn2)ns1 [Compound 134, 3-(5-cyclo-propoxy-4-(trifluoromethyl)pyridin-2-yl)-N-(3-methoxy-pyridin-2-yl)-1,2,4-thiadiazol-5-amine]
The IC50 of the first is lower: 200 to 500 nM for the first, 500 to 5000 nM for the second.

`O=C1CCCN1c1cccnc1Nc1nc(-c2ccc(NC34CC(C3)C4)cn2)ns1` [Compound 204, 1-(2-(3-(5-(bicyclo [1.1.1]pentan-1-ylamino)pyridin-2-yl)-1,2,4-thiadiazol-5-ylamino)pyridin-3-yl)pyrrolidin-2-one] and `CC(C)Oc1ccc(-c2nsc(Nc3ncccc3C(=O)N3CCCC3)n2)nc1` [Compound 190, (2-(3-(5-isoprop-oxypyridin-2-yl)-1,2,4-thiadiazol-5-ylamino)pyridin-3-yl) (pyrrolidin-1-yl) methanone] fall in the same range of IC50: 500 to 5000 nM for the first, 500 to 5000 nM for the second.

Compared with `FC(F)(F)c1ccnc(Nc2nc(-c3cc(C4CC4)ccn3)ns2)c1` [Compound 85, 3-(4-cyclopropyl-pyridin-2-yl)-N-(4-(trifluoromethyl)pyridin-2-yl)-1,2,4-thiadiazol-5-amine], `CC(C)c1ccnc(-c2nsc(Nc3ncccc3N(C)C(=O)C3CC3)n2)c1` [Compound 217, N-(2-(3-(4-isopropylpyridin-2-yl)-1,2,4-thiadiazol-5-ylamino)pyridin-3-yl)-N-methylcyclo-propanecarbox-amide] is higher in IC50: < 200 nM for the first, 500 to 5000 nM for the second. The first is the more potent here.

`CC(C)Oc1ccc(-c2n[nH]c(Nc3ncccc3C(F)(F)F)n2)nc1` [Compound 70, N-(3-(5-isopropoxy-pyridin-2-yl)-1H-1,2,4-triazol-5-yl)-3-(trifluoromethyl) pyridin-2-amine] and `CC(C)c1cccnc1Nc1nc(-c2ccc(OC(F)F)cn2)ns1` [Compound 127, 3-(5-(difluoro-methoxy)pyridin-2-yl)-N-(3-isopropyl-pyridin-2-yl)-1,2,4-thiadiazol-5-amine] fall in the same range of IC50: 500 to 5000 nM for the first, 500 to 5000 nM for the second.

`CC(C)Oc1ccc(-c2nsc(Nc3ncccc3C(=O)N(C)C3CC(F)(F)C3)n2)nc1` [Compound 191, N-(3,3-difluoro-cyclobutyl)-2-(3-(5-isoprop-oxypyridin-2-yl)-1,2,4-thiadiazol-5-ylamino)-N-methyl-nicotinamide] and `COC(=O)c1cccnc1Nc1nc(-c2ccc(OC(C)C)cn2)ns1` [Compound 276, methyl 2-(3-(5-isopropoxy-pyridin-2-yl)-1,2,4-thiadiazol-5-ylamino) nicotinate] fall in the same range of IC50: 500 to 5000 nM for the first, 500 to 5000 nM for the second.

Compared with `Cc1cccnc1Nc1nc(-c2ccc(OC3CCN(C4CC4)CC3(F)F)cn2)ns1` (stereo not shown) [Compound 83, 3-(5-(1-cyclo-propyl-3,3-difluoro-piperidin-4-yloxy)pyridin-2-yl)-N-(3-methylpyridin-2-yl)-1,2,4-thiadiazol-5-amine], `CC(C)c1cccnc1Nc1nc(-c2ccc(O[C@@H]3CCN(C4CC4)C[C@@H]3F)cn2)ns1` [Compound 89, 3-(5-((3S,4R)-1-cyclopropyl-3-fluoro-piperidin-4-yloxy)pyridin-2-yl)-N-(3-isopropylpyridin-2-yl)-1,2,4-thiadiazol-5-amine] is lower in IC50: 200 to 500 nM for the first, < 200 nM for the second. The second is the more potent here.

Compared with `Cc1cccnc1Nc1nc(-c2ccc(OCC3CC3)cn2)ns1` [Compound 73, 3-(5-(cyclopropyl-methoxy)pyridin-2-yl)-N-(3-methylpyridin-2-yl)-1,2,4-thiadiazol-5-amine], `Cc1cccnc1Nc1nc(-c2ccc(OC3CCOCC3)cn2)ns1` [Compound 15, N-(3-methyl-pyridin-2-yl)-3-(5-(tetrahydro-2H-pyran-4-yloxy)pyridin-2-yl)-1,2,4-thiadiazol-5-amine] is higher in IC50: 200 to 500 nM for the first, 500 to 5000 nM for the second.

`CC(=O)N(c1cccnc1Nc1nc(-c2ccc(OC(C)C)cn2)ns1)C(C)C` [Compound 205, N-(2-(3-(5-isopropoxy-pyridin-2-yl)-1,2,4-thiadiazol-5-ylamino)pyridin-3-yl)-N-isopropy-lacetamide] showed an IC50 of 500 to 5000 nM.

From US11505548B2, “Heterocyclic compounds and their use for treatment of helminthic infections and diseases” (Celgene Corporation, priority 2019, dated 2022)
